The text below walks through data of patent US20180030483A1, “PROCESS FOR PRODUCTION OF BIO-ALCOHOL” (DANISCO US INC., priority 2015, published 2018).

Assay [1] deals with Saccharomyces cerevisiae. The assay can be described thus: Batch yeast fermentation in YEGM medium with added organic acid salt. Type of assay: cell-based. The following applies: increasing concentration 0 to 1000 ppm; for increase in ethanol production: 32° C., until glucose less than 0.1% w/v; for yeast growth: biomass by OD660. On the procedure: Yeast Extract Glucose media (YEGM): YEGM was prepared by dissolving 0.75 g Yeast Extract and 10 g dextrose dissolved in 100 ml tap water with pH in range […]. The media was then sterilized at 121° C. for 20 min.
The yeast biomass was measured using UV-Vis spectrophotometers (Shimadzu UV-1800) by diluting with YEGM to an OD660 in range of 0.2 to 0.8 with Milli-Q water.
Thereafter, the samples were analysed for alcohol and glycerol profile by HPLC and yeast biomass by UV Spectrophotometer.

Assay [2] deals with Saccharomyces cerevisiae. As to conditions: molasses media, 0 to 1000 ppm, 3 g active dry yeast, 32° C.
Protocol: Molasses Medium: The media was prepared by diluting 333 g molasses with water to final weight of 1000 g (w/w). To this 400 mg of urea was added as nitrogen source.
Saccharomyces cerevisiae was used in the form of active dry yeast at a concentration of 3% w/v or was pre-cultured by adding 6 g of active dry yeast into 100 ml YEGM in 250 ml Erlenmeyer's flask. The cultures were incubated at 32° C.±2° C. with mixing at 100 to 200 rpm to a final OD660 of 100±10. This culture was subsequently used as an inoculum for further fermentation studies at a concentration of 6% v/v.
The composition of the reaction products was measured by high pressure liquid chromatographic method (Agilent Isocratic system 1200, USA with RI detector) by injecting 20 μL of appropriately diluted samples onto a Aminex Column HPX-87H (catalogue number 1250140, Bio-Rad) maintained at 60° C. using 0.01N sulphuric acid as a mobile phase at a flow rate of 0.7 mL/min. The detection was carried out using Refractive index detector (RID).
Fermentation was carried out at 32° C.±2° C. in incubator shaker at 100-200 rpm. The fermentation was carried out until glucose value observed was less than 0.1% w/v. Thereafter, the samples were analysed for alcohol, organic acids, and glycerol profile by HPLC.
Batch fermentation was initiated by addition of sodium benzoate at a concentration ranging from 0 to 1000 ppm followed by 3 g of active dry yeast into 100 ml molasses media in 250 mL Erlenmeyer flasks. Fermentation was carried out in incubator shaker at 32° C.±2° C. at 100 to 200 rpm. Thereafter, the samples were analysed for alcohol, organic acids, and glycerol profile by HPLC.
Fermentation was carried out at 32° C.±2° C. in incubator shaker at 100 to 200 rpm. The fermentation was carried out until glucose value observed was less than 0.1% w/v. Thereafter, the samples were analysed for alcohol, organic acids, and glycerol profile by HPLC.

Read-outs that look alike come from different tables or passages of the source. Where only a bound is given, the exact number is not on record here.

Take `C/C=C/C=C/C(=O)[O-].[K+]` [potassium sorbate]: in the assay with Saccharomyces cerevisiae [1], the glycerol yield entry is “reduced”, the “increase in ethanol production” value was not below 6% and the yeast growth result was “reduced”. In the assay with Saccharomyces cerevisiae [2], the acetic acid yield result was “reduced”, the ethanol production result is on record as “increased” and the glycerol yield result is on record as “reduced”.

As to `O=C([O-])c1ccccc1.[Na+]` [sodium benzoate], in the assay on Saccharomyces cerevisiae [1], the glycerol yield entry was “reduced”, the “increase in ethanol production” value is reported as not below 6% and the yeast growth result is on record as “reduced”. In the assay with Saccharomyces cerevisiae [2], the ethanol production entry is “increased” and the glycerol yield entry is given as “reduced”.
